Results as given in USRE38132E1, “Phenylpyrrolidines, phenylimidazolidines,3-phenyl-1,3-oxizolidines and 3-phenyl-1,3-thiazolidines and their use in the treatment of inflammatory disease” (Boehringer Ingelheim Pharmaceuticals, Inc., priority 1997, dated 2003).
Read-outs that look alike come from different tables or passages of the source.

How the values were obtained:
[1] = molecular target: T1, interaction of ICAM-1 with the Leukointegrin CD18/CD11a (LFA-1) (Homo sapiens, UniProt P05107+P20701); experiment: Assay to determine inhibition of LFA-1 binding to ICAM-1 (immunopurified LFA-1 on plate-bound sICAM-1, ELISA readout)
T1 construct: endogenous in cells; sICAM-1: made in house, secreted from transfected CHO DUX cells
T1 sequence (P20701 26-1170): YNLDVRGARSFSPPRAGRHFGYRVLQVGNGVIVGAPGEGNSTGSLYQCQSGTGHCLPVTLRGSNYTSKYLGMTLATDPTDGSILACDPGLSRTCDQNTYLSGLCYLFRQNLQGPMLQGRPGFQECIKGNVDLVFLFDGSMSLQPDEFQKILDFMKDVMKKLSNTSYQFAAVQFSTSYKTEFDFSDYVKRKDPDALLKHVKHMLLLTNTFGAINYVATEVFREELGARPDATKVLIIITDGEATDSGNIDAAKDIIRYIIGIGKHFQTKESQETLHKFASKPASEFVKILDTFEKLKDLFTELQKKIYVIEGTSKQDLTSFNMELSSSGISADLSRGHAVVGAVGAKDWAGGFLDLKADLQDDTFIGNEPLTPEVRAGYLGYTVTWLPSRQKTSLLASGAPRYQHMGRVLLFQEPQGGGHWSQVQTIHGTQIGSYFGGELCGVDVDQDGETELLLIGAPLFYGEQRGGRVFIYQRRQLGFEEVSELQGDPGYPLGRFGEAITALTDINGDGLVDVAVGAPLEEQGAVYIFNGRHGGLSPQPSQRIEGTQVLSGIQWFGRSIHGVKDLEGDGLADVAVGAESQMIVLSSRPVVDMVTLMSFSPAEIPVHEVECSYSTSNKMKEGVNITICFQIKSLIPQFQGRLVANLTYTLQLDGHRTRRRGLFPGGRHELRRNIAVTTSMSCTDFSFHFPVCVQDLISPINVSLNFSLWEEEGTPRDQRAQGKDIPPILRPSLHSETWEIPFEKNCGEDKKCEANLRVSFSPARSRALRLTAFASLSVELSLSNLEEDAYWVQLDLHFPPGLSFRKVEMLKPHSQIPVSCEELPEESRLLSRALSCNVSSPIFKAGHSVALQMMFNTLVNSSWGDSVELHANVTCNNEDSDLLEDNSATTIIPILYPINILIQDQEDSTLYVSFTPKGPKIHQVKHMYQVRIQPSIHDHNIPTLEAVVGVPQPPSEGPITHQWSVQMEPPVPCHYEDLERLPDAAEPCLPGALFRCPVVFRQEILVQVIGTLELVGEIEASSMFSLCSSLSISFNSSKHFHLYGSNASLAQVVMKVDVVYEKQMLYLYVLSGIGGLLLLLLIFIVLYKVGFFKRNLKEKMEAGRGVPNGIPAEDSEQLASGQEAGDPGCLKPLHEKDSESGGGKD
T1 sequence (P05107 23-769): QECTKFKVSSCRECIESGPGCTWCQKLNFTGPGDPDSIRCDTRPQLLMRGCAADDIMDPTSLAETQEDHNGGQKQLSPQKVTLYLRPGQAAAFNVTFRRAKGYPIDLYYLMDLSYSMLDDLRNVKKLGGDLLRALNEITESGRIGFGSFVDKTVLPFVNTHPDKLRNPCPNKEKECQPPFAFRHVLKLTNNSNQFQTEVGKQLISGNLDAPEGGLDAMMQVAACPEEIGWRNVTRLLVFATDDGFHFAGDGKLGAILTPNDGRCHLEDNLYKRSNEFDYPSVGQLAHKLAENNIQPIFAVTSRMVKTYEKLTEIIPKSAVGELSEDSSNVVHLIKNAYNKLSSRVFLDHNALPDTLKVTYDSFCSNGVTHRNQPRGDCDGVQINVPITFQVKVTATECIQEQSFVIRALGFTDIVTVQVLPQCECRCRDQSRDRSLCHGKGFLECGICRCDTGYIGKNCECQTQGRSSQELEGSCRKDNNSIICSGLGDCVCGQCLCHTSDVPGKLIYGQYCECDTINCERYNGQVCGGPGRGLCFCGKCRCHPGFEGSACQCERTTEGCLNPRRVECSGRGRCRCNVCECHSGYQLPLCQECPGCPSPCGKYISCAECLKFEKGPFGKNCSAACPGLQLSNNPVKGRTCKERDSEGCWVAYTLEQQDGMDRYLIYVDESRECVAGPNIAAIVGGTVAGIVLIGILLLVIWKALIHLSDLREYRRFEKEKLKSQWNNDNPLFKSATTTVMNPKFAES
Description: Assay to Determine Inhibition of LFA-1 Binding to ICAM-1 Purpose of Assay: This assay protocol is designed to study the direct antagonism, by a test compound, of the interaction of the CAM, ICAM-1 with the Leukointegrin CD18/CD11a (LFA-1). […] After collection and neutralization of fractions from the TS2/4 column, samples are pooled and precleared with Protein G agarose. […] Wells are washed 3 times with Diluting Buffer. The bound LFA-1 is detected by the addition of a polyclonal antibody directed against a peptide corresponding to the CD18 cytoplasmic tail in a 1:100 dilution with Diluting Buffer and 1% BSA and allowed to incubate for 45 min at 37° C. Wells are washed 3 times with Diluting Buffer and the bound polyclonal antibody is detected by the addition of a 1:4000 dilution of horse radish peroxidase conjugated to goat immunoglobulin directed against rabbit immunoglobulin. […] The lack of the addition of LFA-1 to the binding assay is used as a background control for all samples. A dose-response curve is obtained for all test compounds. Results of these tests are reported as Kd's in μM.

[2] = tested on: cell bound form of LFA-1 (CD18, CD11a) with ICAM-1, SKW3 cells; experiment: Inhibition of SKW3 cell binding to ICAM-1 (PMA-stimulated); type: cell-based, human; details: Homo sapiens, read-out: Assay to Detect SKW3 Cells Binding to ICAM IC50
Outline: (§1)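 Compound-treated, PMA-stimulated human T-cell line SKW3 (50 μg/mL PMA final) allowed to adhere for 2 h at 37° C to wells coated with sICAM-1 at 40 μg/mL or fibronectin at 100 μg/mL. After gentle RPMI wash, 50% inhibition concentration or range reported in μM.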

[3] = tested on: cell bound fibronectin receptor (VLA4) with fibronectin, SKW3 cells; experiment: Inhibition of SKW3 cell binding to fibronectin (selectivity counter-assay); type: cell-based, human; details: for IC50: read-out: Assay to Detect SKW3 Cells Binding to FIBRONECTIN IC50
Outline: as §1

[4] = tested on: LFA-1 dependent aggregation of JY cells; experiment: JY cell homotypic aggregation assay (PMA-stimulated); type: cell-based, human
Outline: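 Homotypic aggregation of EBV-transformed JY cells, stimulated by phorbol myristate acetate ([…]), scored visually over time in compound presence at 2·10^5 cells/well in serum-supplemented RPMI 1640. Result given as μM concentration or range inhibiting binding by 50%.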

[5] = tested on: human MLR, peripheral blood mononuclear cells; experiment: Inhibition of the mixed lymphocyte reaction (MLR), tritiated thymidine uptake; type: cell-based; set-up: key: Data are reported as “+” or “−” at a given concentration (in μM); Data are reported as “+” or “−” at a given concentration (in μM)
Protocol: Assay to Determine Inhibition the Mixed Lymphocyte Reaction
As discussed above, ICAM-1 is necessary for effective cellular interactions during an immune response mediated through LFA-1-dependent cell adhesion. When lymphocytes from two unrelated individuals are cultured together, blast transformation and cell proliferation of the lymphocytes are observed. This response is known as a mixed lymphocyte reaction (MLR) and is analogous to the response of lymphocytes to the 10 addition of antigens or mitogens (Immunology: The Science of Self-Nonself Discrimination; Klein, J., Ed.; John Wiley & Sons: NY, 1982, pp 453-458).
This assay protocol is used to determine the effect of a test compound on the human MLR.
Description of Assay Protocol:
Peripheral blood is obtained from normal, healthy donors by venipuncture. The blood is collected in heparinized tubes and diluted 1:1 at room temperature with Puck's G (GIBCO) balanced salt solution (BSS). The blood mixture (20 mL) is layered over 15 mL of a Ficoll/Hypaque density gradient (Pharmacia, density=1.078, room temperature) and centrifuged at 1000·g for 20 minutes. The interface is then collected and washed 3 times in Puck's G. The cells are counted on a hemocytometer and resuspended in RPMI 1640 culture medium (GIBCO) containing 0.5% of gentamicin, 1 mM L-glutamine (GICO) and 5% heat inactivated (56° C., 30 min) human AB sera (Flow Laboratories) (hereafter referred to as RPMI-culture medium).
Stimulator cells (cells that have been treated with irradiation so that they are unable to proliferate) from a separate donor are cultured with the responder cells at the same concentration. Test compound is added to wells at various concentrations. The total volume per culture is 0.2 mL. Controls include compound vehicle alone (DMSO), responder cells alone, and stimulator cells alone. The culture plates are incubated at 37° C. in a 5% CO2-humidified air atmosphere for 5 days.
The wells are pulsed with 0.5 μCi of tritiated thymidine (^3HT) (New England Nuclear) for the last 18 h of culture. In some cases a two-way MLR can be performed. The protocol is the same except that the second donor's cells are not inactivated by irradiation.
The cells are harvested onto glass fiber filters using an automated multiple sample harvester (Skatron, Norway), and rinsed with water and methanol. The filters are oven dried and counted in Aquasol in a Beckman (LS-3801) liquid scintillation counter.
Data are reported as “+” or “−” at a given concentration (in μM).

[6] = values marked e approximated from incomplete dose-response curve
[7] = SKW3, values marked c: no inhibition observed up to highest dose
[8] = values marked c: no inhibition observed up to highest dose
[9] = No inh = no inhibition observed up to highest dose, exact quantification not always possible due to intrinsic toxicity

SMILES	Kd [1, 6]	melting point	IC50 [2, 7]	Assay to Detect SKW3 Cells Binding to FIBRONECTIN IC50 [3, 8]	IC50 ([4]; Homo sapiens)	Mixed Lymphocyte Reaction MLR +/− ([5]; at 25 μM)	Cellular Toxicity Assay MTT LD50 (SKW3 cells)	IC50 [3, 8]	Mixed Lymphocyte Reaction MLR +/− ([5]; at 50 μM)	IC50 ([3]; Homo sapiens, SKW3, values marked c: no inhibition observed up to highest dose)	Kd [1]	IC50 ([2]; SKW3)	IC50 ([3]; Homo sapiens, SKW3, No inh = no inhibition observed up to highest dose, exact quantification not always possible due to intrinsic toxicity)	IC50 [4]	Assay to Detect SKW3 Cells Binding to FIBRONECTIN IC50 [3, 9]
CC1(Cc2ccc(-c3ccccc3)cc2)NC(=O)N(c2cc(Cl)cc(Cl)c2)C1=O (stereo not drawn) [Example 49]	260 nM	61 to 63 °C													
Cc1cc(C)cc(CC2(C)NC(=O)N(c3cc(Cl)cc(Cl)c3)C2=O)c1 (stereo not drawn) [Example 50]	~17000 nM	> 240 °C													
CC1(Cc2ccc(F)c(F)c2)NC(=O)N(c2cc(Cl)cc(Cl)c2)C1=O (stereo not drawn) [Example 54]	420 nM	117 to 118 °C													
C[C@H]1C(=O)N(c2cc(Cl)cc(Cl)c2)C(=O)[C@]1(C)Cc1ccc(Br)cc1 [Example 72]	60 nM		20000 to 40000 nM	No inh^c	1400 nM	+(25)	>363 µM								
CN1C(=O)N(c2cc(C(F)(F)F)cc(C(F)(F)F)c2)C(=O)C1(C)Cc1ccccc1 (stereo not drawn) [Example 83]	300 nM		13000 to 25000 nM		6000 nM		250 to 500 µM	> 200000 nM	+(50)						
CN1C(=O)N(c2cc(Cl)cc(Cl)c2)C(=O)C1Cc1ccc(Br)cc1 (stereo not drawn) [Example 92]	120 nM		13000 to 25000 nM	No inh^c	3100 nM	+(25)	63 to 125 µM								
CCCN1C(=O)N(c2cc(Cl)cc(Cl)c2)C(=O)[C@@]1(C)Cc1ccc(Br)cc1 [Example 98]	55 nM		5000 to 10000 nM	No inh^c	3000 nM		>340 µM		+(50)						
CN1C(=O)N(c2cc(Cl)c(Cl)c(Cl)c2)C(=O)[C@@]1(C)Cc1ccc(Br)cc1 [Example 123]	100 nM		12000 to 25000 nM		600 nM		50 to 100 µM		+(50)	> 25000 nM					
CN1C(=O)N(c2cc(Cl)cc(Cl)c2)C(=O)C1(C)Cc1ccc(F)cc1 (stereo not drawn) [Example 146]	130 nM		13000 to 25000 nM	No inh^c	400 nM		100 µM		+(50)						
CN1C(=O)N(c2cc(Cl)cc(Cl)c2)C(=O)C1(C)Cc1ccc(C#N)cc1 (stereo not drawn) [Example 151]	46 nM		5000 to 10000 nM	No inh^c	200 nM	+(25)	>410 µM								
CN1C(=O)N(c2cc(Cl)cc(Cl)c2)C(=O)C1(C)Cc1ccc([N+](=O)[O-])cc1 (stereo not drawn) [Example 157]	37 nM		5000 to 10000 nM	No inh^c	400 nM	+(25)	>390 µM								
CC1(Cc2ccc(Br)cc2)C(=O)N(c2cc(Cl)cc(Cl)c2)C(=O)N1C1CC1 (stereo not drawn) [Example 169]	50 nM		12000 to 25000 nM	No inh^c	1500 nM	+(25)	160 to 230 µM								
CN1C(=O)N(c2cc(Cl)cc(Cl)c2)C(=O)[C@@]1(C)Cc1ccc(-c2ccccc2)cc1 [Example 182]	50 nM		3000 to 6000 nM	No inh^c	20 nM	+(25)	200 to 400 µM								
C[C@]1(Cc2ccc(C(=O)c3ccccc3)cc2)NC(=O)N(c2cc(Cl)cc(Cl)c2)C1=O [Example 215]							100 to 200 µM		+(50)		200 nM	50000 to 100000 nM	> 100000 nM	3100 nM	
C[C@@]1(Cc2ccc(Br)cc2)C(=O)N(c2cc(Cl)cc(Cl)c2)C(=O)N1CCO [Example 225]					200 nM	+(25)	50 to 100 µM				630 nM	3000 to 4000 nM			No inh^c
C[C@@]1(Cc2ccc(Br)cc2)C(=O)N(c2cc(Cl)cc(Cl)c2)C(=O)N1CCCCCC(=O)O [Example 226]					1600 nM	+(25)	100 µM				70 nM	3000 to 6000 nM			No inh^c
C[C@@]1(Cc2ccc(Br)cc2)C(=O)N(c2cc(Cl)cc(Cl)c2)C(=O)N1CCCC(=O)O [Example 227]					3100 nM		200 to 400 µM		+(50)		180 nM	25000 nM			No inh^c
C[C@@]1(Cc2ccc(Br)cc2)C(=O)N(c2cc(Cl)cc(Cl)c2)C(=O)N1Cc1cccc(C(=O)O)c1 [Example 229]					3100 nM		50 to 100 µM		+(50)		300 nM	6000 to 13000 nM			No inh^c
CCCN1C(=O)N(c2cc(Cl)cc(Cl)c2)C(=O)[C@]1(C)Cc1ccc(Br)cc1 [Example 276]					500 nM	+(25)	375 µM				1110 nM	10000 nM			No inh^c
